Results: publication PMC7180572, “5-Alkylamino-N-phenylpyrazine-2-carboxamides: Design, Preparation, and Antimycobacterial Evaluation” (Molecules, 2020)
≈ marks a conversion by molar mass, not a printed value. Like-named read-outs stand apart in the source and are kept apart here.

Experiments:
[1] = test system: Candida parapsilosis ATCC 22019, CCM 8260; experiment: Antifungal microdilution broth method (EUCAST); format: cell-based; settings: Lodderomyces parapsilosis
[2] = test system: Aspergillus fumigatus ATCC 204305; experiment: Antifungal microdilution broth method (EUCAST); format: cell-based; settings: read-out: MIC AF
[3] = test system: Pseudomonas aeruginosa ATCC 27853, CCM 3955; experiment: Antibacterial microdilution broth method (EUCAST); format: cell-based; settings: read-out: MIC PA
[4] = test system: Candida albicans ATCC 24433, CCM 8320; experiment: Antifungal microdilution broth method (EUCAST); format: cell-based
[5] = test system: Staphylococcus epidermidis ATCC 12228, CCM 4418; experiment: Antibacterial microdilution broth method (EUCAST); format: cell-based; settings: read-out: MIC SE
[6] = test system: Mycobacterium smegmatis DSM 43465 (ATCC 607); experiment: Microdilution broth, modified Microplate Alamar Blue Assay, whole cell growth inhibition; format: cell-based; settings: Mycolicibacterium smegmatis, read-out: MIC Mycobacterium smegmatis
[7] = test system: Aspergillus flavus CCM 8363; experiment: Antifungal microdilution broth method (EUCAST); format: cell-based; settings: read-out: MIC AFla
[8] = test system: Mycobacterium aurum DSM 43999 (ATCC 23366); experiment: Microdilution broth, modified Microplate Alamar Blue Assay, whole cell growth inhibition; format: cell-based; settings: Mycolicibacterium aurum, read-out: MIC Mycobacterium aurum
[9] = test system: Acinetobacter baumanii ATCC 19606, DSM 30007; experiment: Antibacterial microdilution broth method (EUCAST); format: cell-based; settings: Acinetobacter baumannii
[10] = test system: Staphylococcus aureus methicillin resistant ATCC 43300, CCM 4750; experiment: microbe, parasite or virus in culture; format: cell-based; settings: ATCC 43300 / CCM 4750 / MRSA, read-out: MIC MRSA
[11] = test system: Candida krusei ATCC 6258, CCM 8271; experiment: Antifungal microdilution broth method (EUCAST); format: cell-based; settings: Pichia kudriavzevii
[12] = test system: Candida tropicalis ATCC 750, CCM 8264; experiment: Antifungal microdilution broth method (EUCAST); format: cell-based; settings: read-out: MIC CT
[13] = test system: Enterococcus faecalis ATCC 29212, CCM 4224; experiment: Antibacterial microdilution broth method (EUCAST); format: cell-based; settings: read-out: MIC EF
[14] = test system: Trichophyton interdigitale ATCC 9533, CCM 8377; experiment: Antifungal microdilution broth method (EUCAST); format: cell-based; settings: read-out: MIC TI
[15] = test system: Staphylococcus aureus spp.aureus ATCC 29213, CCM 4223; experiment: Antibacterial microdilution broth method (EUCAST); format: cell-based; settings: read-out: MIC SA
[16] = test system: Absidia corymbifera CCM 8077 (Lichtheimia corymbifera); experiment: Antifungal microdilution broth method (EUCAST); format: cell-based; settings: read-out: MIC AC
[17] = test system: Escherichia coli ATCC 25922, CCM 3954; experiment: Antibacterial microdilution broth method (EUCAST); format: cell-based; settings: read-out: MIC EC
HepG2 cells = experiment: HepG2 cytotoxicity, CellTiter 96 (MTS) assay; format: cell-based, human; settings: for IC50: Homo sapiens, HepG2, 24 h, read-out: HepG2 IC50; for SI, selectivity index: IC50 (HepG2)/MIC against Mtb H37Ra (in µM)
[18] = test system: Klebsiella pneumoniae ATCC 10031, CCM 4415; experiment: Antibacterial microdilution broth method (EUCAST)
[19] = test system: Mycobacterium tuberculosis H37Ra ITM-M006710 (ATCC 9431); experiment: Microdilution broth, modified Microplate Alamar Blue Assay, whole cell growth inhibition; format: cell-based; settings: Mycobacterium tuberculosis; in vitro, Middlebrook 7H9 broth, resazurin; read-out: MIC Mtb H37Ra

Compound `CCCCNc1cnc(C(=O)Nc2ccc(O)cc2)cn1` [Compound 3b, 5-(Butylamino)pyrazine-N-(4-hydroxyphenyl)-2-carboxamide] has an MIC ([1]; 24 h, read-out: MIC CP) of 250 µM (≈ 71.6 µg/mL), an MIC ([1]; 48 h, read-out: MIC CP) of 250 µM (≈ 71.6 µg/mL) and an MIC ([1]; read-out: MIC CP (Candida parapsilosis)) of 250 µM (≈ 71.6 µg/mL). For the same compound, the MIC ([2]; ATCC204305, 24 h) was greater than 250 µM, the MIC ([2]; ATCC204305, 48 h) was greater than 250 µM and the MIC ([3]; 72 h) was greater than 500 µM. For the same compound, the MIC ([3]; 120 h) was greater than 500 µM, the melting point was 208 to 211.4 °C and the MIC ([4]; 24 h, read-out: MIC CA) was 62.5 µM (≈ 17.9 µg/mL). For the same compound, the MIC ([4]; 48 h, read-out: MIC CA) was 62.5 µM (≈ 17.9 µg/mL), the MIC ([4]; read-out: MIC CA (Candida albicans)) was 62.5 µM (≈ 17.9 µg/mL) and the MIC ([5]; 24 h) was greater than 500 µM. For the same compound, the MIC ([5]; 48 h) was greater than 500 µM, the MIC [6] was no less than 500 µg/mL and the MIC ([7]; CCM8363, 24 h) was greater than 250 µM. It also gave an MIC ([7]; CCM8363, 48 h) greater than 250 µM, an MIC [8] of no less than 500 µg/mL and an MIC ([9]; 24h) greater than 500 µM. It also gave an MIC ([9]; 48h) greater than 500 µM, an MIC ([10]; 24 h) greater than 500 µM and an MIC ([10]; 48 h) greater than 500 µM. It also gave an MIC ([11]; 24 h, read-out: MIC CK) greater than 250 µM, an MIC ([11]; 48 h, read-out: MIC CK) greater than 250 µM and an MIC ([11]; read-out: MIC CK (Candida krusei)) greater than 250 µM. The MIC ([12]; 24 h) was greater than 250 µM, the MIC ([12]; 48 h) was greater than 250 µM and the MIC ([13]; 24 h) was greater than 500 µM. It also gave an MIC ([13]; 48 h) greater than 500 µM, an MIC ([14]; 72 h) greater than 250 µM and an MIC ([14]; 120 h) greater than 250 µM. For the same compound, the MIC ([15]; 24 h) was greater than 500 µM, the MIC ([15]; 48 h) was greater than 500 µM and the MIC ([16]; CCM8077, 24 h) was greater than 250 µM. For the same compound, the MIC ([16]; CCM8077, 48 h) was greater than 250 µM, the MIC ([17]; 24 h) was greater than 500 µM and the MIC ([17]; 48 h) was greater than 500 µM. For the same compound, the IC50 (HepG2 cells) was 378 µM, the “SI, selectivity index” value (HepG2 cells) was 3.46 and the “MIC KP” value ([18]; 24h) was greater than 500 µM. The “MIC KP” value ([18]; 48h) was greater than 500 µM and the MIC [19] was 31.2 µg/mL (≈ 109 µM).

Work on `CCCCCCNc1cnc(C(=O)Nc2ccc(O)cc2)cn1` [Compound 3d, 5-(Hexylamino)pyrazine-N-(4-hydroxyphenyl)-2-carboxamide] yielded an MIC ([1]; 24 h, read-out: MIC CP) greater than 500 µM, an MIC ([1]; 48 h, read-out: MIC CP) greater than 500 µM and an MIC ([2]; ATCC204305, 24 h) greater than 500 µM. It also gave an MIC ([2]; ATCC204305, 48 h) greater than 500 µM, an MIC ([3]; 72 h) greater than 500 µM and an MIC ([3]; 120 h) greater than 500 µM. For the same compound, the melting point was 157.7 to 161.5 °C, the MIC ([4]; 24 h, read-out: MIC CA) was greater than 500 µM and the MIC ([4]; 48 h, read-out: MIC CA) was greater than 500 µM. For the same compound, the MIC ([5]; 24 h) was greater than 500 µM, the MIC ([5]; 48 h) was greater than 500 µM and the MIC [6] was 250 µg/mL (≈ 795 µM). For the same compound, the MIC ([7]; CCM8363, 24 h) was greater than 500 µM, the MIC ([7]; CCM8363, 48 h) was greater than 500 µM and the MIC [8] was no less than 500 µg/mL. It also gave an MIC ([9]; 24h) greater than 500 µM, an MIC ([9]; 48h) greater than 500 µM and an MIC ([10]; 24 h) greater than 500 µM. The MIC ([10]; 48 h) was greater than 500 µM, the MIC ([11]; 24 h, read-out: MIC CK) was greater than 500 µM and the MIC ([11]; 48 h, read-out: MIC CK) was greater than 500 µM. The MIC ([12]; 24 h) was greater than 500 µM, the MIC ([12]; 48 h) was greater than 500 µM and the MIC ([13]; 24 h) was greater than 500 µM. For the same compound, the MIC ([13]; 48 h) was greater than 500 µM, the MIC ([14]; 72 h) was greater than 500 µM and the MIC ([14]; 120 h) was greater than 500 µM. For the same compound, the MIC ([15]; 24 h) was greater than 500 µM, the MIC ([15]; 48 h) was greater than 500 µM and the MIC ([16]; CCM8077, 24 h) was greater than 500 µM. The MIC ([16]; CCM8077, 48 h) was greater than 500 µM, the MIC ([17]; 24 h) was greater than 500 µM and the MIC ([17]; 48 h) was greater than 500 µM. For the same compound, the IC50 (HepG2 cells) was 58.6 µM, the “SI, selectivity index” value (HepG2 cells) was 4.71 and the “MIC KP” value ([18]; 24h) was greater than 500 µM. For the same compound, the “MIC KP” value ([18]; 48h) was greater than 500 µM and the MIC [19] was 3.91 µg/mL (≈ 12.4 µM).

Work on `CCCCCCNc1cnc(C(=O)Nc2ccc(CC)cc2)cn1` [Compound 5d, N-(4-ethylphenyl)-5-(hexylamino)pyrazine-2-carboxamide] yielded an MIC ([1]; 24 h, read-out: MIC CP) greater than 125 µM, an MIC ([1]; 48 h, read-out: MIC CP) greater than 125 µM and an MIC ([2]; ATCC204305, 24 h) greater than 125 µM. It also gave an MIC ([2]; ATCC204305, 48 h) greater than 125 µM, an MIC ([3]; 72 h) greater than 500 µM and an MIC ([3]; 120 h) greater than 500 µM. For the same compound, the melting point was 138 to 139 °C, the MIC ([4]; 24 h, read-out: MIC CA) was greater than 125 µM and the MIC ([4]; 48 h, read-out: MIC CA) was greater than 125 µM. For the same compound, the MIC ([5]; 24 h) was greater than 500 µM, the MIC ([5]; 48 h) was greater than 500 µM and the MIC [6] was no less than 500 µg/mL. For the same compound, the MIC ([7]; CCM8363, 24 h) was greater than 125 µM, the MIC ([7]; CCM8363, 48 h) was greater than 125 µM and the MIC [8] was no less than 500 µg/mL. For the same compound, the MIC ([9]; 24h) was greater than 500 µM, the MIC ([9]; 48h) was greater than 500 µM and the MIC ([10]; 24 h) was greater than 500 µM. The MIC ([10]; 48 h) was greater than 500 µM, the MIC ([11]; 24 h, read-out: MIC CK) was greater than 125 µM and the MIC ([11]; 48 h, read-out: MIC CK) was greater than 125 µM. It also gave an MIC ([12]; 24 h) greater than 125 µM, an MIC ([12]; 48 h) greater than 125 µM and an MIC ([13]; 24 h) greater than 500 µM. The MIC ([13]; 48 h) was greater than 500 µM, the MIC ([14]; 72 h) was greater than 125 µM and the MIC ([14]; 120 h) was greater than 125 µM. For the same compound, the MIC ([15]; 24 h) was greater than 500 µM, the MIC ([15]; 48 h) was greater than 500 µM and the MIC ([16]; CCM8077, 24 h) was greater than 125 µM. It also gave an MIC ([16]; CCM8077, 48 h) greater than 125 µM, an MIC ([17]; 24 h) greater than 500 µM and an MIC ([17]; 48 h) greater than 500 µM. The IC50 (HepG2 cells) was greater than 25 µM, the “MIC KP” value ([18]; 24h) was greater than 500 µM and the “MIC KP” value ([18]; 48h) was greater than 500 µM. The MIC [19] was no less than 500 µg/mL.
